Experimental data taken from patent US6369110B1, “Substituted guanidine derivatives and process for producing the same” (Sumitomo Pharmaceuticals Company, priority 1998, dated 2002).

molecular target: T1, Na+/H+ exchange transport system (Rattus norvegicus, UniProt P26431); assay: Inhibitory effect on the Na+/H+ exchange transport system (in vitro), pH change in isolated ventricular myocytes under an acid load; assay type: cell-based
T1 construct: a pH change in isolated ventricular myocytes (rat) under an acid load; from tissue; host or cells: isolated rat ventricular myocytes
Method: Inhibitory Effect on the Na^+/H^+ Exchange Transport System (In Vitro)
A test was carried out according to the method of Iemori et al. (J. Hypertension, 8, 153(1990)). In detail, inhibitory effect on the Na^+/H^+ exchange transport system was evaluated by using as an indication a pH change in isolated ventricular myocytes (rat) under an acid load.

T1 sequence (P26431 whole entry): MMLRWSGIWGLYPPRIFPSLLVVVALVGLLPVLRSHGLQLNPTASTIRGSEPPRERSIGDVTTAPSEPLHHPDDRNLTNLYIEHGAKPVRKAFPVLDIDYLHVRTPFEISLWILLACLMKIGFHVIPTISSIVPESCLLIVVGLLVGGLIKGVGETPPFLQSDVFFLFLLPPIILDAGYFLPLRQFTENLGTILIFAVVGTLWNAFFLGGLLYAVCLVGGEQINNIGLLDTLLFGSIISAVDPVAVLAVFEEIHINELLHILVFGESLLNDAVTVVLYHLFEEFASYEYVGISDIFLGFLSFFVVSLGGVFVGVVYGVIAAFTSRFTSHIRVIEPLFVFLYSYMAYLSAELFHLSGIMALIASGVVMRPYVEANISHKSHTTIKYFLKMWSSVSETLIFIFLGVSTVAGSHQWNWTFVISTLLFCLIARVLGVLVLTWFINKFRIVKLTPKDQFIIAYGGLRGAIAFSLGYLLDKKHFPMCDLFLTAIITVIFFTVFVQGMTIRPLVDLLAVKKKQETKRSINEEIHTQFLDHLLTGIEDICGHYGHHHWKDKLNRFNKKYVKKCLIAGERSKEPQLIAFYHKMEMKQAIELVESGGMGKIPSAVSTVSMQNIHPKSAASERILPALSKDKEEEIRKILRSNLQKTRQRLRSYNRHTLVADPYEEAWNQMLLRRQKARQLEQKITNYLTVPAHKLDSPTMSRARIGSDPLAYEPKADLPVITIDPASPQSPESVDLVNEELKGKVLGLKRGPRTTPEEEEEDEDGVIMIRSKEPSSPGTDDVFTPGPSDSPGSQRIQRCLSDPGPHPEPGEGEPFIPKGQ

For “N-(aminoiminomethyl)-2-methylsulfonyl-6,7-dihydro-5H-benzocycloheptene-8-carboxamide Methanesulfonate [Example 13]”, which IC50 is on record?
Its IC50 is greater than 10000 nM.

How did the IC50 turn out when “N-(aminoiminomethyl)-2,3-dihydro-1H-benz[b]azepine-4-carboxamide dimethane-sulfonate [Example 5]” was run?
The IC50 was 150 nM.

How did the IC50 turn out when “N-(aminoiminomethyl)-5-methoxy-3,4-dihydronaphthalene-2-carboxamide Methanesulfonate [Example 2]” was run?
Its IC50 is 100 nM.

How did the IC50 turn out when “N-(aminoiminomethyl)-2,3-dihydro-benz[b]oxepine-4-carboxamide Methanesulfonate [Example 6]” was run?
Its IC50 is 70 nM.

How did the IC50 turn out when “N-(aminoiminomethyl)-4-methylthio-6,7-dihydro-5H-benzocycloheptene-8-carboxamide Methanesulfonate [Example 14]” was run?
The IC50 was 30 nM.

With “N-(aminoiminomethyl)-4-methylsulfonyl-6,7-dihydro-5H-benzocycloheptene-8-carboxamide Methanesulfonate [Example 15]” as the compound, how does the IC50 read?
Its IC50 is 30 nM.

With “N-(aminoiminomethyl)-3,4-dihydronaphthalene-2-carboxamide Methanesulfonate [Example 1]” as the compound, how does the IC50 read?
The IC50 was 300 nM.

With “N-(aminoiminomethyl)-7-methyl-6,7-dihydro-5H-benzocycloheptene-8-carboxamide Methanesulfonate [Example 10]” as the compound, how does the IC50 read?
The IC50 was 10 nM.

With “N-(aminoiminomethyl)-5-methyl-6,7-dihydro-5H-benzocycloheptene-8-carboxamide Methanesulfonate [Example 7]” as the compound, how does the IC50 read?
Its IC50 is 50 nM.

Which IC50 does the source give for “N-(aminoiminomethyl)-1-(4-methylphenylsulfonyl)-2,3-dihydro-1H-benz[b]azepine-4-carboxamide Methanesulfonate [Example 4]” here?
Its IC50 is 3300 nM.

With “N-(aminoiminomethyl)-2-methylthio-6,7-dihydro-5H-benzocycloheptene-8-carboxamide Methanesulfonate [Example 12]” as the compound, how does the IC50 read?
The IC50 was 460 nM.

For CC1CC(C(=O)NC(=N)N)=Cc2ccccc2C1 (stereo not drawn) [Example 11, N-(aminoiminomethyl)-6-methyl-6.7-dihydro-5H-benzocycloheptene-8-carboxamide Methanesulfonate], which IC50 is on record?
Its IC50 is 210 nM.

Which IC50 does the source give for “N-(aminoiminomethyl )-6,7-dihydro-5H-benzocycloheptene-8-carboxamide Methanesulfonate [Example 3]” here?
The IC50 was 50 nM.

Which IC50 does the source give for “N-(aminoiminomethyl)-4,9-dimethyl-6,7-dihydro-5H-benzocycloheptene-8-carboxamide Methanesulfonate [Example 9]” here?
Its IC50 is 2300 nM.

“N-(aminoiminomethyl)-9-methyl-6,7-dihydro-5H-benzocycloheptene-8-carboxamide Methanesulfonate [Example 8]” was tested. Which IC50 did it give?
Its IC50 is 7100 nM.
